# From ChEMBL document CHEMBL2028040, “Malaria Box”
# What was measured:
# [1] = MMV: Cytotoxicity against human fibroblasts (MRC-5) cells.; details: MRC-5 cells (human fibroblasts)
# [2] = test system: Plasmodium falciparum; assay: MMV: Inhibition of Plasmodium falciparum 3D7 at 5uM compound concentration.; assay type: functional
# [3] = test system: Leishmania infantum; assay: MMV: Inhibition of Leishmania infantum (MHOM/MA/BE/67) in vitro.; assay type: functional, organism-based
# [4] = test system: Trypanosoma cruzi; assay: MMV: Inhibition of Trypanosoma cruzi (Tulahuen C4 LacZ) (Chagas in vitro).; assay type: functional, organism-based
# [5] = test system: Plasmodium falciparum; assay: MMV: Inhibition of Plasmodium falciparum K1 (EC50).; assay type: functional, organism-based
# [6] = test system: Trypanosoma brucei rhodesiense; assay: MMV: Inhibition of Trypanosoma brucei rhodesiense (STIB 900) (HAT in vitro).; assay type: functional, organism-based
# [7] = test system: Plasmodium falciparum; assay: MMV: Inhibition of Plasmodium falciparum 3D7 (EC50).; assay type: functional, organism-based
# [8] = test system: Trypanosoma brucei brucei; assay: MMV: Inhibition of Trypanosoma brucei brucei (Squib 427) (HAT in vitro).; assay type: functional, organism-based
SMILES,IC50 [1],inhibition at 5 µM [2],IC50 [3],IC50 [4],EC50 [5],IC50 [6],EC50 [7],IC50 [8]
CCN(Cc1ccccc1)C1CCN(Cc2cc(Br)ccc2O)CC1,> 32 µM,97%,16 µM,11.8 µM,0.187 µM,11.4 µM,0.625 µM,10.9 µM
Cc1ccc(C)c(Cn2c(N3CCC(C(=O)NCc4cccs4)CC3)nc3ccccc32)c1,> 32 µM,97%,17.3 µM,8.64 µM,1.67 µM,3.86 µM,1.33 µM,6.9 µM
CC1CCN(Cc2c(O)ccc3cc(-c4nc5ccccc5s4)c(=O)oc23)CC1,23.2 µM,91%,19 µM,18 µM,0.47 µM,< 0.125 µM,1.13 µM,18.4 µM
Clc1cc(Br)ccc1-c1ccc(CNCC2CCNCC2)o1,4.03 µM,96%,1 µM,1.01 µM,1.62 µM,< 0.125 µM,0.8 µM,< 0.125 µM
COc1ccc(C2C(C(=O)Nc3cccc(OC)c3)c3ccccc3C(=O)N2C2CCCCC2)cc1 (centres undefined),> 32 µM,97%,6.35 µM,15.6 µM,1.6 µM,3.7 µM,1.18 µM,4.06 µM
O=C(Nc1ccc(C23CC4CC(CC(c5ccccc5)(C4)C2)C3)cc1)c1cccs1,> 32 µM,96%,> 32 µM,> 32 µM,1.27 µM,> 32 µM,0.826 µM,> 32 µM
CN1C=C(c2ccc3ccccc3n2)C(c2c[nH]c3ccccc23)c2ccccc21 (centres undefined),> 32 µM,95%,16.2 µM,0.934 µM,1.06 µM,0.979 µM,0.552 µM,3.77 µM
Oc1ccccc1CNCC12CC3CC(CC(C3)C1)C2,> 32 µM,96%,17.3 µM,> 32 µM,0.0068 µM,16 µM,0.0226 µM,15.7 µM
CNCCCNc1ccnc2cc(Cl)ccc12,> 32 µM,98%,16.2 µM,16.5 µM,1 µM,3.92 µM,0.0822 µM,3.82 µM
COc1ccccc1CNC(=O)CCn1c(=O)[nH]c2ccsc2c1=O,> 32 µM,67%,> 32 µM,> 32 µM,0.15 µM,> 32 µM,0.14 µM,> 32 µM
COc1ccc(Br)cc1C1Nc2ccc3ccccc3c2C2=C1C(=O)CC(c1ccccc1)C2 (centres undefined),> 32 µM,95%,> 32 µM,1.12 µM,0.4 µM,1.06 µM,0.18 µM,4.06 µM
O=C(Nc1ccc(N2CCCCC2)c(Cl)c1)c1ccc(Br)o1,26.8 µM,96%,> 32 µM,14.9 µM,1.45 µM,13.6 µM,0.735 µM,15.1 µM
CC1CCN(Cc2ccc(NC(=O)c3cc4ccc5cccnc5c4[nH]3)cc2)CC1,1.45 µM,97%,3.01 µM,2.2 µM,0.773 µM,0.861 µM,0.274 µM,1.41 µM
COc1ccc(C(C)=O)cc1N1C(=O)C2C(C1=O)C1(c3ccccc3)C(=O)C2(c2ccccc2)C(c2ccc(C)cc2)=C1c1ccc(C)cc1 (centres undefined),> 32 µM,96%,> 32 µM,> 32 µM,0.224 µM,> 32 µM,0.179 µM,> 32 µM
CCOC(=O)C1CCN(C(=O)CN2C(=O)c3ccccc3C2c2c[nH]c3ccccc23)CC1 (centres undefined),> 32 µM,98%,> 32 µM,14.7 µM,2.67 µM,13.8 µM,1.18 µM,16.1 µM
CCN(CC)S(=O)(=O)c1ccc(-c2csc(Nc3ccc(C)c(C)c3)n2)cc1,> 32 µM,97%,16.2 µM,> 32 µM,1.04 µM,> 32 µM,0.641 µM,> 32 µM
CC(C)(C)c1ccc(C2CC3=Nc4ccccc4N(C(=O)c4ccccc4Cl)C(c4ccc(F)cc4)C3=C(O)C2)cc1 (centres undefined),> 32 µM,96%,17.3 µM,> 32 µM,0.824 µM,1.11 µM,0.947 µM,4.25 µM
CCCCc1c(CCC)c(=N)c2ccccc2n1C,19.3 µM,77%,6.35 µM,0.375 µM,1.58 µM,3.92 µM,0.716 µM,4 µM
